Test system: Donor 4 COP T-Cell Lines
Test: ATP proliferation assay (CellTiter Glo), Donor 4 COP T-cell lines, incl. reactivity to non-canonical GA peptides
Type: cell-based, human
Settings: for luminescent ATP proliferation assay, Mean RLU: 205-1H7; for luminescent ATP proliferation assay, Mean RLU / Mean RLU: Day 59, 4 days incubation; for Mean, ATP proliferation assay: Cell Line 205-1F4; for Mean RLU: T-Cell Line 205-1H11

glatiramer acetate [COP]
luminescent ATP proliferation assay, Mean RLU (1 μg/mL, 0 μg/mL 3382): 13131 RLU | luminescent ATP proliferation assay, Mean RLU (10 μg/mL, 0 μg/mL 3382): 175652 RLU | luminescent ATP proliferation assay, Mean RLU (30 μg/mL, 0 μg/mL 3382): 190750 RLU | Mean, ATP proliferation assay (Day 50, 1 μg/mL): 47254 | Mean, ATP proliferation assay (Day 50, 3 μg/mL): 169021 | Mean, ATP proliferation assay (Day 50, 10 μg/mL): 213196 | Mean, ATP proliferation assay (Day 58, 3 μg/mL): 21031 | Mean, ATP proliferation assay (Day 58, 10 μg/mL): 31423 | Mean, ATP proliferation assay (Day 58, 30 μg/mL): 31323 | Mean, ATP proliferation assay (Day 58, 100 μg/mL): 31188 | Mean RLU (1 μg/mL COP): 12243 RLU | Mean RLU (10 μg/mL COP): 147464 RLU | Mean RLU (30 μg/mL COP): 112673 RLU | Reactivity (proliferation), Mean (T-cell line 205-1B4, 1 μg/mL antigen, No Antigen 830): 1522 RLU | Reactivity (proliferation), Mean (T-cell line 205-1B4, 3 μg/mL antigen, No Antigen 830): 5501 RLU | Reactivity (proliferation), Mean (T-cell line 205-1B4, 10 μg/mL antigen, No Antigen 830): 11273 RLU | COP 10 μg/mL, ATP proliferation assay (T-cell line 205-1B4, Day 13, 10 μg/mL): 84937 RLU | COP 10 μg/mL, ATP proliferation assay (T-cell line 205-1B7, Day 13, 10 μg/mL): 74147 RLU | Reactivity (proliferation), Mean (T-cell line 205-1C4, 1 μg/mL antigen, No Antigen 4464): 8859 RLU | Reactivity (proliferation), Mean (T-cell line 205-1C4, 3 μg/mL antigen, No Antigen 4464): 26612 RLU | Reactivity (proliferation), Mean (T-cell line 205-1C4, 10 μg/mL antigen, No Antigen 4464): 41287 RLU | COP 10 μg/mL, ATP proliferation assay (T-cell line 205-1C4, Day 13, 10 μg/mL): 69861 RLU | COP 10 μg/mL, ATP proliferation assay (T-cell line 205-1D1, Day 13, 10 μg/mL): 63419 RLU | COP 10 μg/mL, ATP proliferation assay (T-cell line 205-1E1, Day 13, 10 μg/mL): 44198 RLU | COP 10 μg/mL, ATP proliferation assay (T-cell line 205-1F2, Day 13, 10 μg/mL): 71947 RLU | COP 10 μg/mL, ATP proliferation assay (T-cell line 205-1F4, Day 13, 10 μg/mL): 33143 RLU | Proliferation (luminescent ATP assay), Mean (T-cell line 205-1F4, Day 71, 1 μg/mL antigen, autologous B-LCL): 47254 | Proliferation (luminescent ATP assay), Mean (T-cell line 205-1F4, Day 71, 3 μg/mL antigen, autologous B-LCL): 169021 | Proliferation (luminescent ATP assay), Mean (T-cell line 205-1F4, Day 71, 10 μg/mL antigen, autologous B-LCL): 213196 | COP 10 μg/mL, ATP proliferation assay (T-cell line 205-1G3, Day 13, 10 μg/mL): 54211 RLU | COP 10 μg/mL, ATP proliferation assay (T-cell line 205-1H1, Day 13, 10 μg/mL): 29824 RLU | Reactivity (proliferation), Mean (T-cell line 205-1H3, 1 μg/mL antigen, 0 μg/mL 4121.0): 32122.0 | Reactivity (proliferation), Mean (T-cell line 205-1H3, 3 μg/mL antigen, 0 μg/mL 4121.0): 49585.0 | Reactivity (proliferation), Mean (T-cell line 205-1H3, 10 μg/mL antigen, 0 μg/mL 4121.0): 60878.3 | COP 10 μg/mL, ATP proliferation assay (T-cell line 205-1H3, Day 13, 10 μg/mL): 55518 RLU | COP 10 μg/mL, ATP proliferation assay (T-cell line 205-1H4, Day 13, 10 μg/mL): 50307 RLU | Reactivity (proliferation), Mean (T-cell line 205-1H5, 1 μg/mL antigen, No Antigen 749): 2375 RLU | Reactivity (proliferation), Mean (T-cell line 205-1H5, 3 μg/mL antigen, No Antigen 749): 7182 RLU | Reactivity (proliferation), Mean (T-cell line 205-1H5, 10 μg/mL antigen, No Antigen 749): 8580 RLU | COP 10 μg/mL, ATP proliferation assay (T-cell line 205-1H5, Day 13, 10 μg/mL): 57608 RLU | Proliferation (luminescent ATP assay), Mean (T-cell line 205-1H7, 1μg/mL antigen, after seven stimulations, 0 μg/mL 3382): 13131 RLU | Proliferation (luminescent ATP assay), Mean (T-cell line 205-1H7, 10 μg/mL antigen, after seven stimulations, 0 μg/mL 3382): 175652 RLU | Proliferation (luminescent ATP assay), Mean (T-cell line 205-1H7, 30 μg/mL antigen, after seven stimulations, 0 μg/mL 3382): 190750 RLU | COP 10 μg/mL, ATP proliferation assay (T-cell line 205-1H7, Day 13, 10 μg/mL): 64436 RLU | COP 10 μg/mL, ATP proliferation assay (T-cell line 205-1H9, Day 13, 10 μg/mL): 52972 RLU | Reactivity (proliferation), Mean (T-cell line 205-1H11, 1 μg/mL antigen, 0 μg/mL 6941): 12243 RLU | Reactivity (proliferation), Mean (T-cell line 205-1H11, 10 μg/mL antigen, 0 μg/mL 6941): 147464 RLU | Reactivity (proliferation), Mean (T-cell line 205-1H11, 30 μg/mL antigen, 0 μg/mL 6941): 112673 RLU | COP 10 μg/mL, ATP proliferation assay (T-cell line 205-1H11, Day 13, 10 μg/mL): 54232 RLU | ATP ratio (COP stimulated:unstimulated control) (fifteen Donor 4 wells, Day 13, 10 μg/mL (Table 26)): two or greater

Reference: patent US9995734B2, “Human T cell line assay for evaluating the immunologic identity of glatiramer acetate preparations” (Mylan Inc., priority 2013, dated 2018)
